Results taken from patent US8785459B2, “Quinazoline compounds as kinase inhibitors” (Development Center for Biotechnology, priority 2011, dated 2014).

How the values were obtained:
Format in all cases: biochemical
[1] = target: B-Raf (Homo sapiens (Human), UniProt P15056); assay: Raf kinase assay (B-Raf), [33P] incorporation into MEK1(K97R); conditions: for inhibition at 1 µM / B-Raf inhibition at 1.0 μM: 1.0 μM compound; for inhibition at 1 µM: read-out: B-Raf inhibition at 1.0 μM
Method: (§1) A. Raf Kinase Assays (B-Raf, B-raf (V600E), and C-Raf)
(§2) Inhibition of kinase activity by test compound disclosed herein was estimated by quantifying the amount of [^33P] incorporation of substrate in the presence of test compound. Standard assay conditions were 2 ng of recombinant C-Raf or 5 ng of recombinant B-Raf or 5 ng of recombinant B-Raf (V600E) kinase (Upstate Biotechnology) with 500 ng MEK1(K97R) in assay buffer {8 μM ATP, 0.5 μCi [^33P]ATP (specific activity 3000 Ci/mmol, PerkinElmer), 50 mM Tris/HCl (pH7.5), and 1 mM EGTA, 1 mM Na3VO4, 1% 2-mercaptoethanol, 0.1% Brij 35, and 0.2 mg/ml BSA} at a final volume of 25 μL. Reactions were incubated at 30° C. for 30 min and stopped by adding 3% phosphoric acid, harvested onto a 96-well GF/B UniFilter (PerkinElmer) using a unifilter harvester (PerkinElmer), and counted with a TopCount microplate scintillation counter (PerkinElmer). The IC50 values of inhibitors were determined after carrying out assays at 3-fold serially diluted concentrations of each compound in duplication. The results were analyzed using linear regression software (GraphPad Prism 4; GraphPad Software Inc.). Inhibition of B-Raf, B-raf (V600E), and C-Raf kinases by various compounds listed in Table 1 are summarized and shown in Table 3 below. IC50 value is defined as the concentration of the test compound which achieves a half-maximal inhibition of the kinase activity.

[2] = target: B-Raf (V600E) (Homo sapiens (Human), UniProt P15056, V600E); assay: Raf kinase assay (B-Raf (V600E)), [33P] incorporation into MEK1(K97R)
Method: as §1, §2

[3] = target: C-Raf (Homo sapiens (Human), UniProt P04049); assay: Raf kinase assay (C-Raf), [33P] incorporation into MEK1(K97R)
Method: as §1, §2

Sequence of B-Raf (P15056 whole entry): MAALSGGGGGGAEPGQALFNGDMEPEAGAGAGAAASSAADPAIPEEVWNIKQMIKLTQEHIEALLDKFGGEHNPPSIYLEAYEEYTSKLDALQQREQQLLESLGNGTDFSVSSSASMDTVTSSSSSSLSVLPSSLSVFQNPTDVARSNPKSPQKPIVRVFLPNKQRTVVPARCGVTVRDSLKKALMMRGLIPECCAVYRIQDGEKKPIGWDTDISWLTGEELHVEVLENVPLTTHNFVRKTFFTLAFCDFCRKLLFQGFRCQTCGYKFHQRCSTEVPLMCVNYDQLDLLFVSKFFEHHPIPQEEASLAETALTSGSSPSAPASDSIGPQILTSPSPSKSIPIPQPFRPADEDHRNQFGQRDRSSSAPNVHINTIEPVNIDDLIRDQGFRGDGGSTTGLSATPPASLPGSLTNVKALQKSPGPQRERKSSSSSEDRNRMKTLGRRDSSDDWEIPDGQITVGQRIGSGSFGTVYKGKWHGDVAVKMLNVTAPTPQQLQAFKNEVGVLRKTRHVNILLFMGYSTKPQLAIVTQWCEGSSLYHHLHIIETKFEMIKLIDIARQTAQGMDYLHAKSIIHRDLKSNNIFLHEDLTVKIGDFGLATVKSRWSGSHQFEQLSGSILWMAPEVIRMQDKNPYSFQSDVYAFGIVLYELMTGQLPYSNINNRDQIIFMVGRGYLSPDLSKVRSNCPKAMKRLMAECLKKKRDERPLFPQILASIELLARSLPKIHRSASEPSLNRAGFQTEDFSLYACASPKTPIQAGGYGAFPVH
Sequence of B-Raf (V600E) (P15056 whole entry V600E): as the sequence (P15056 whole entry) above, with V600E counted along it
Sequence of C-Raf (P04049 whole entry): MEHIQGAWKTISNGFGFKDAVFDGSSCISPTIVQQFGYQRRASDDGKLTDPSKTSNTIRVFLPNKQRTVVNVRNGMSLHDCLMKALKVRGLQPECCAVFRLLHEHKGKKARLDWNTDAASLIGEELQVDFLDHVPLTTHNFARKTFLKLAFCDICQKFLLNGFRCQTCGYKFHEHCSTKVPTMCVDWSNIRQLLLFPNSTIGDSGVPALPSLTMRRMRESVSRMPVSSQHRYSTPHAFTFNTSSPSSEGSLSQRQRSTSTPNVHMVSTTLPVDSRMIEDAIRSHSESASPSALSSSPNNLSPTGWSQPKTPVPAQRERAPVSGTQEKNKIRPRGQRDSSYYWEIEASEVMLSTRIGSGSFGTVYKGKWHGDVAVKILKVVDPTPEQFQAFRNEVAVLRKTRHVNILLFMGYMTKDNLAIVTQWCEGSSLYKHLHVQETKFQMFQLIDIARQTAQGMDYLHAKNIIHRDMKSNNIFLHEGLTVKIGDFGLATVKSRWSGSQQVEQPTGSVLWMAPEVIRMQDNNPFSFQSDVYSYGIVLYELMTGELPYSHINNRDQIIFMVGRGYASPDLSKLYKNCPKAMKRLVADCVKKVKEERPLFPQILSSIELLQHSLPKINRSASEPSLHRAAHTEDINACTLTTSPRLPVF

SMILES	IC50 [1] [nM]	inhibition at 1 µM [1] [%]	IC50 [2] [nM]	IC50 [3] [nM]	B-Raf inhibition at 1.0 μM [1] [%]
CCOc1ccc(-c2ccc3ncnc(Nc4cccc5[nH]ncc45)c3c2)cc1 [Compound 93, 6-(4-ethoxyphenyl)-N-(1H-indazol-4-yl)quinazolin-4-amine]	347	76.6	355	1560	
COc1cc(-c2ccc3ncnc(Nc4c(F)ccc5[nH]ncc45)c3c2)ccc1O [Compound 136, 4-(4-(5-fluoro-1H-indazol-4-ylamino)quinazolin-6-yl)-2-methoxyphenol]	350		268	1130	84.9
CN(C)c1ccc(-c2ccc3ncnc(Nc4cccc5[nH]ncc45)c3c2)cc1 [Compound 90, 6-(4-(dimethylamino)phenyl)-N-(1H-indazol-4-yl)quinazolin-4-amine]	762	56.1	1010	4080	
COc1cc(-c2ccc3ncnc(Nc4ccc5c(c4)OCO5)c3c2)ccc1O [Compound 38, 4-(4-(benzo[d][1,3]dioxol-5-ylamino)quinazolin-6-yl)-2-methoxyphenol]	660	57.5	707	1400	
COc1cccc(-c2ccc3nccc(Nc4cccc5[nH]ncc45)c3c2)c1 [Compound 146, N-(1H-indazol-4-yl)-6-(3-methoxyphenyl)quinolin-4-amine]	614		426	3700	64.3
COc1cc(-c2ccc3ncnc(Nc4ccc(C)c(O)c4)c3c2)ccc1O [Compound 29, 4-(4-(3-hydroxy-4-methylphenylamino)quinazolin-6-yl)-2-methoxyphenol]	177	85.7	212	1060	
COc1ccc(-c2ccc3nccc(Nc4cccc5[nH]ncc45)c3c2)cc1F [Compound 112, 6-(3-fluoro-4-methoxyphenyl)-N-(1H-indazol-4-yl)quinolin-4-amine]	182	80.2	207	619	
Oc1ccc(-c2ccc3ncnc(Nc4cccc5[nH]ncc45)c3c2)cc1 [Compound 131, 4-(4-(1H-indazol-4-ylamino)quinazolin-6-yl)phenol]	451	80.1	547	4210	
COc1cc(-c2ccc3ncnc(Nc4ccc5nc[nH]c5c4)c3c2)ccc1O [Compound 54, 4-(4-(1H-benzo[d]imidazol-6-ylamino)quinazolin-6-yl)-2-methoxyphenol]	735	56.2	633	2570	
COc1cc(-c2ccc3ncnc(Nc4cccc(F)c4)c3c2)ccc1O [Compound 52, 4-(4-(3-fluorophenylamino)quinazolin-6-yl)-2-methoxyphenol]	560	69.2	544	1300	
COc1ccc(-c2ccc3ncnc(Nc4cccc5[nH]ncc45)c3c2)cc1C [Compound 78, N-(1H-indazol-4-yl)-6-(4-methoxy-3-methylphenyl)quinazolin-4-amine]	470	71.1	736	1860	
COc1cc(-c2ccc3ncnc(Nc4cccc(NC(=O)C(F)(F)F)c4)c3c2)ccc1O [Compound 45, 2,2,2-trifluoro-N-(3-(6-(4-hydroxy-3-methoxyphenyl)quinazolin-4-ylamino)phenyl)acetamide]	382	73.9	358	835	
CS(=O)(=O)c1ccc(-c2ccc3ncnc(Nc4cccc5[nH]ncc45)c3c2)cc1 [Compound 110, N-(1H-indazol-4-yl)-6-(4-(methylsulfonyl)phenyl)quinazolin-4-amine]	248	81.8	273	650	
